Laboratory results: PMC5326799, “Discovery of Compounds that Positively Modulate the High Affinity Choline Transporter” (Frontiers in Molecular Neuroscience, 2017)
pEC50, pIC50, pKi: −log10 of the molar value. “Also recorded” adds a separate entry of the source. Where two headings read alike, the source gives them in different places.

Key:
CHT [1] = molecular target: T1, CHT (Homo sapiens, UniProt Q9GZV3); experiment: Live cell anti-FLAG immunolabeling of CHT cell surface localization in CHT-WT4 cells; format: cell-based; parameters: expressed in transfected cells; host or cells: HEK-293, lentiviral transduction, single-cell clone CHT-WT4; conditions: 1 or 10 μM for 1 h, qualitative observations
T1 sequence (Q9GZV3 1-580): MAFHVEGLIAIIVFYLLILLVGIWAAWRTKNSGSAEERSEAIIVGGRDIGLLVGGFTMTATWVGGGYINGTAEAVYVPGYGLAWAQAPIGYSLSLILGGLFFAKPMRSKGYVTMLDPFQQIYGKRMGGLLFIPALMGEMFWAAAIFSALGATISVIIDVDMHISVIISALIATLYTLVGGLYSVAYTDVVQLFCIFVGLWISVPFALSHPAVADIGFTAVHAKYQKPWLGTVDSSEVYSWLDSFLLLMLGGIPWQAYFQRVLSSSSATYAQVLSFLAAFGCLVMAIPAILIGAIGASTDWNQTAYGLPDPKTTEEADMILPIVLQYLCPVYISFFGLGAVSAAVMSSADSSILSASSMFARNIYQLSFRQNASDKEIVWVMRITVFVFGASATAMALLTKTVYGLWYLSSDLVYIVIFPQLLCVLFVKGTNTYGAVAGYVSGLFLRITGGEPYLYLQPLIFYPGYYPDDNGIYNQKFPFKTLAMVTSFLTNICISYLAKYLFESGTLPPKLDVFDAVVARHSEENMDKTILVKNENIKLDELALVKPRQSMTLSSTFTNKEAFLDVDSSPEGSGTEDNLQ
Method: Media was removed and cells were washed once with HBSS (+/+). 1 μg/mL Anti-FLAG antibody (F3165, Sigma) was diluted in HBSS (+/+) and added to the cellular monolayer for 30 mins. After incubation, cells were washed three times with HBSS (+/+) followed by incubation with 1:5,000 AF488 labeled secondary antibody (LifeTech) diluted in HBSS (+/+) for 30 min. After three washes, cells were fixed with 4% paraformaldehyde in HBSS (+/+) for 15 min. Nuclei were counterstained with the nuclear dye Hoechst. All images were captured and analyzed on an epifluorescent microsope or Cellomics platform.
Thus, understanding compound effects on CHT density and activation state in the synaptic membrane may aid interpretation of the effects on cholinergic neurotransmission. Conventional methods such as cell surface biotinylation present challenges in terms of the requirement of large quantities of cells and low throughput. […] Our CHT overexpression construct contains a FLAG tag on the N-terminus which we sought to utilize with antibody detection in non-permeabilized cells. […] We proceeded to investigate the effect of compound treatment in more detail. Cells were incubated with compounds at 1 or 10 μM for 1 h before immunolabeling and visualization.

CHT [2] = molecular target: T1, CHT; conditions: for D9-choline uptake % effect 1 μM: 1 μM compound; for D9-choline uptake % effect 1 μM / D9-choline uptake % effect 10 μM: HEK293 CHT-WT4, DMSO negative control, 10 μM STS positive control; for D9-choline uptake % effect 10 μM: 10 μM compound
[3] = molecular target: T2, high affinity choline transporter (CHT) (Homo sapiens, UniProt Q9GZV3); experiment: Radiometric [3H]Choline uptake assay (scintillation proximity) in HEK cells expressing CHT; format: cell-based; conditions: for 3H-choline uptake % effect 1 μM: 1 μM compound; for 3H-choline uptake % effect 1 μM / 3H-choline uptake % effect 10 μM: 100% = 10 μM Staurosporine, 0% = DMSO; for 3H-choline uptake % effect 10 μM: 10 μM compound; for CHT modulator classification in radiometric assay: single point 1 and 10 μM, actives in 10-point dose response
T2 construct: expressed in transfected cells; host or cells: HEK-293, lentiviral transduction, single-cell clone CHT-WT4
T2 sequence (Q9GZV3 1-580): T1 sequence (Q9GZV3 1-580)
Method: Uptake of [^3H]Choline (American Radiochemicals; ART 0197; 1,000 Ci/vial; Specific Activity 60–90 Ci/mmol) was measured in HEK cells expressing the high affinity choline transporter (CHT), clone WT4. Cells were plated at 50,000 cells /well in 200 μL culture media on a PDL coated Cytostar-T 96 well plate (Perkin Elmer) 24 h prior to assay. On the day of assay, following two washes and a 30 min pre-incubation at 37°C in 50 μL Na(−) free buffer (0.54 mM KCl, 1.3 mM CaCl2, 0.53 mM MgCl2, 0.4 mM MgSO4, 0.37 mM KH2PO4, 240 mM Sucrose, 4.4 mM Tris-phosphate, 5.5 mM Glycine, 5.6 mM D-Glucose; pH 6.5 with KOH), 25 μL 4X control or test compounds in Na(−) buffer were added to the cells. […] Final DMSO concentration was 0.25%. Following a 30 min incubation at 37°C, 25 μL [^3H]Choline diluted to 320 nM (80 nM final concentration) was added in Na(+) buffer (0.54 mM KCl, 1.3 mM CaCl2, 0.53 mM MgCl2, 0.4 mM MgSO4, 0.37 mM KH2PO4, 138 mM NaCl, 0.28 mM Na2HPO4, 5.5 mM Glycine, 5.6 mM D-Glucose; pH 6.5 with KOH). Plates were sealed with TopSeals (Perkin Elmer) and incubated in darkness for 3 h at room temperature before reading using a Wallac Microbeta, 1 min/well.
A preponderance of literature precedent for measuring high affinity choline uptake (HACU) utilizes a radiometric assay to measure [^3H]Choline transport in preparations. […] A number of parameters were assessed in assay development including cell seeding density, time of assay post-seeding, plate coating, buffer composition, read time and choline concentration.

CHT [4] = molecular target: T1, CHT; experiment: cell-based
CHT [5] = molecular target: T1, CHT; experiment: SURFE2R solid supported membrane (SSM) electrophysiology on CHT-WT4 membrane fragments; format: biochemical; parameters: expressed in transfected cells; host or cells: HEK-293, lentiviral transduction, single-cell clone CHT-WT4
Method: A single cell clone of HEK293 overexpressing CHT (CHT-WT4) cells was used to generate membrane fragments to assess on the SURFE^2R platform. Cells were grown to 80% confluence and harvested. The membrane fraction was collected by ultracentrifugation and the plasma membranes were isolated by density gradient centrifugation (Schulz et al., [2008]).
All experiments were performed on the SURFE^2R N1 device and the matching N1 sensor blanks (Nanion Technologies GmbH, Munich). The sensor blanks include a 3 mm diameter gold surface inside a small well coated by incubating 50 μL of 0.5 mM 1-octadecanethiol dissolved in isopropanol for 30 min, rinsed once with isopropanol and twice with water (ddH2O) and dried for 30 min at room temperature.
7.5 μg/μL DPhPC (Avanti Polar Lipids) was dissolved in n-Decane. 1.5 μL were added onto the thiol-coated gold surface. Immediately, 80 μL of potassium buffer was added carefully. The CHT membrane preparation was diluted 1:10 with potassium buffer and sonicated. Eight microliter were added directly onto the SSM by submerging the pipette into the buffer and the sensors were centrifuged for 30 min at 2,200 × g. The quality of the SSM was controlled by determination of conductance σ and capacitance C. The SURFE^2R N1 device includes default functions to perform these measurements. Sensors should have a conductance below 3 nS and capacitance below 20 nF.
Prepared sensors were inserted into the faraday cage of the SURFE^2R N1 device and buffers applied via its automatic perfusion system, allowing rapid buffer exchange in a continuous liquid flow. The following buffer addition sequence was used for all experiments: Sodium buffer was applied for 2 s with a flow rate of 200 μl/s to establish a sodium gradient over the membrane. […] During those 6 s the current response was recorded. […]
Raw data were exported as ASCII files, analysis was performed using the scientific graphing and data analysis program IGOR Pro 6 (WaveMetrics, Portland, USA). The evaluated peak currents were determined using a peak detection algorithm. […]

SH-SY5Y cell line = experiment: [3H]Choline uptake in untransformed SH-SY5Y cell line; format: cell-based; conditions: 1 μM HC-3, 10 μM STS
From the text: (§1) Supplementary file Image1.JPEG: Supplementary Figure 1 [^3H] […] Click here for additional data file.

[6] = molecular target: high affinity choline transporter (CHT); parameters: method as in earlier work; conditions: ref Okuda and Haga, 2000, Okuda et al., cited from earlier work
[7] = molecular target: T2, high affinity choline transporter (CHT); experiment: Radiometric [3H]Choline uptake assay (scintillation proximity) in HEK cells expressing CHT; format: cell-based; conditions: HEK293, read-out: % inhibition of [3H]Choline uptake by HC-3, 1 μM
SK-N-FI cell line = experiment: [3H]Choline uptake in untransformed SK-N-FI cell line; format: cell-based; conditions: 1 μM HC-3, 10 μM STS
From the text: as §1

[8] = EC50 estimate, [3H]Choline uptake (positive modulators), CHT-WT4 cells, 10-point dose response
[9] = PAM compounds, 10-point dose response, HEK293 CHT-WT4, n.d. = not detected, read-out: 3H-choline uptake IC50 or EC50
[10] = inhibitor/NAM compounds, 10-point dose response, HEK293 CHT-WT4, read-out: 3H-choline uptake IC50 or EC50

Row | Compound | Effect on cell surface localization of CHT (CHT [1]) | D9-choline uptake % effect 1 μM (CHT [2]) | D9-choline uptake % effect 10 μM (CHT [2]) | 3H-choline uptake % effect 1 μM ([3]; HEK293 CHT-WT4) | 3H-choline uptake % effect 10 μM ([3]; HEK293 CHT-WT4) | pEC50 (CHT [4]) | CHT modulator classification in radiometric assay [3] | also measured
1 | COc1ccc(C(=O)NCc2cc(C(C)C)no2)cc1OC1CCN(C)CC1 [ML-352, reference compound] | increase in cell surface localization; also recorded: increase transporter density on the cell surface | 96.3% | 104.1% |  |  |  |  | 
2 | CNC(=O)C1CCCN1c1nc(Cc2ccccc2F)cc(Nc2cc(C3CC3)[nH]n2)n1 (stereo not drawn) [Compound 6] | no effects; also recorded: no apparent effect | 60.8% | 91.6% | 3.6% | 23.6% | 5.69 |  | 
3 | O=C(Cn1c(=O)oc2ccccc21)Nc1ccnc2ccccc12 [Compound 2] |  |  |  |  |  |  | positive allosteric CHT modulators | pEC50 [3, 8]: 6.40; pEC50 [3, 9]: 6.38
4 | NC(=O)N1C(=O)C(C(=O)Cc2ccccc2)c2cc(F)ccc21 (stereo not drawn) [Compound 3] |  |  |  |  |  |  | positive allosteric CHT modulators | EC50 ([3]; 3H-choline uptake IC50 or EC50(M), PAM compounds, 10-point dose response, HEK293 CHT-WT4, n.d. = not detected): 4.51e-06 M; pEC50 [3, 8]: 5.35
5 | Cc1oc2nc3c(c(NC(=O)CN4CCCC4=O)c2c1C)CCCC3 [MKC-231, coluracetam, reference compound] | no apparent effect |  |  |  |  |  |  | Impact on CHT mediated transport, [3H]Choline uptake ([3]; CHT-WT4 cells, 10-point dose response): unable to see any impact; Impact on CHT mediated transport, [3H]Choline uptake ([3]; CHT-WT4 cells, 10-point dose response, listed as MKC231): no apparent effect; Effect on CHT current (SURFE2R) (CHT [5]; CHT-WT4 membrane preparations): not able to detect any effect; Effect on D9-choline uptake (CHT [2]; 10-point dose response): no apparent effect
6 | N#Cc1c[nH]c2ncnc(N3CCC4(CC3)CNCc3ccc(C(F)(F)F)nc34)c12 [Compound 8] | increased cell surface localization; also recorded: distinct increase in apparent cell surface localization | 24.5% | 80.2% | 9.0% | 52.6% | 5.29 |  | 
7 | C[N+]1(C)CCOC(O)(c2ccc(-c3ccc(C4(O)C[N+](C)(C)CCO4)cc3)cc2)C1 (stereo not drawn) [HC-3, hemicholinium-3, reference compound] | increase in cell surface localization; also recorded: increase transporter density on the cell surface |  |  |  |  |  |  | pIC50 [3]: 6.94; inhibition at 1 µM ([3]; HEK293, read-out: % inhibition of [3H]Choline uptake by HC-3, 1 μM, CHT-WT4 clone): ~80%; Effect on [3H]Choline uptake (SH-SY5Y cell line): No effect; pKi ([6]; Apparsundaram et al., 2001, read-out: Ki, inhibition of choline uptake): 8.30 to 9.00; pIC50 (CHT [4]): 8.25; inhibition at 1 µM ([7]; CHT-WT5 clone): ~61%; inhibition at 1 µM ([7]; CHT-WT Pool): ~69%; Effect on [3H]Choline uptake (SK-N-FI cell line): No effect; pIC50 (CHT [5]): 7.69
8 | O=C(NCc1ccc(Cl)cc1)c1ccc2snc(N3CCNCC3)c2c1 [Compound 4] |  | 12.3% | 118.1% |  |  |  | negative allosteric modulators | pIC50 [3, 10]: 5.81; pIC50 (CHT [4]): 5.50
9 | Cn1ncc2nc(-c3ccnc(N)c3)nc(N3CCNCC3(C)C)c21 [Compound 9] | increased cell surface localization; also recorded: distinct increase in apparent cell surface localization | 30.5% | 64.0% | 24.4% | 100.0% | 5.24 |  | 
10 | O=C(CC1=CCCCC1)Nc1ccnc2ccccc12 [Compound 1] |  |  |  |  |  |  | positive allosteric CHT modulators | pEC50 [3, 8]: 6.52; pEC50 [3, 9]: 6.56
11 | C[N+](C)(C)CCO [choline, Choline Chloride] |  |  |  |  |  |  |  | Km ([6]; Apparsundaram et al., 2001, read-out: Km, high-affinity sodium-dependent choline uptake): ~2 µM; pEC50 (CHT [5]): 4.60
12 | O=C(NCc1ccc(Cl)cc1)c1cn2c(N3CCNCC3)nccc2n1 [Compound 5] |  |  |  |  |  |  | negative allosteric modulators | pIC50 [3, 10]: 6.17
13 | CNC(=O)C1CCC(Nc2nc(Nc3ccc(S(C)(=O)=O)cc3)ncc2C(F)(F)F)C1 (stereo not drawn) [Compound 7] | no effects; also recorded: no apparent effect | 46.4% | 80.8% | −2.4% | 26.7% | 5.60 |  | 
